Reference: US20230165980A1, “METHODS FOR RADIOLABELING PSMA BINDING LIGANDS AND THEIR KITS” (Novartis AG, priority 2020, published 2023)

Experiment: Radiochemical purity: non-complexed ^68Ga species by ITLC
Format: physicochemical
Protocol: Radiochemical Purity: Non-Complexed ^68Ga Species by ITLC
Radical Scavenger to be used for the improvement of the radiochemical stability of ^68Ga-PSMA-11, tests were performed according to a varied approach in order to consider all the parameters that may affect the radiochemical purity of the product (activity, pH, volume, amount of Gentisic Acid).
Stability tests were performed on the freeze dried product containing the final formulation. […] Kits manufactured with the final formulation, indeed, were stored at different stability conditions (2-8° C.; 25° C. and 40° C.) and were tested at different time points for API-assay, Radiochemical Purity and Radiochemical Stability of the radiolabelled product. […]

Measured: [^68Ga] Not Complexed Species, iTLC

^68Ga-PSMA-11 [[^68Ga] Gallium PSMA-11]
0.00%: t0 h, Gentisic Acid 0 μg, IRE 17.19 mCi, 1 mL, pH 5.24 | t0 h, Gentisic Acid 200 μg, IRE 18.07 mCi, 1 mL, pH 5.25 | t0 h, Gentisic Acid 200 μg, ITG 35.92 mCi, 4 mL, pH 4.83 | t0 h, Gentisic Acid 400 μg, IRE 17.44 mCi, 1 mL, pH 5.13 | t0 h, Gentisic Acid 400 μg, IRE 17.79 mCi, 1 mL, pH 5.11 | t0 h, Gentisic Acid 400 μg, ITG 16.9 mCi, 4 mL, pH 4.85 | t0 h, Gentisic Acid 400 μg, ITG 31.97 mCi, 4 mL, pH 4.81 | t0 h, Gentisic Acid 1000 μg, E&Z 15.65 mCi, 5 mL, pH 3.75 | t0 h, Gentisic Acid 1000 μg, IRE 17.1 mCi, 1 mL, pH 5.08 | t0 h, Gentisic Acid 1000 μg, ITG 30.9 mCi, 4 mL, pH 4.87 | t0 h, final formulation kit at Release, E&Z 15.65 mCi, 5 mL, pH 3.75 | t0 h, final formulation kit at Release, IRE 32.27 mCi, 1 mL, pH 4.95 | t0 h, final formulation kit at Release, IRE 32.95 mCi, 1 mL, pH 5.07 | t0 h, final formulation kit at Release, ITG 29.74 mCi, 4 mL, pH 4.67 | t0 h, final formulation kit at Release, ITG 30.90 mCi, 4 mL, pH 4.67 | t0 h, kit stored 3 months at 2-8° C., IRE 25.76 mCi, 1 mL, pH 5.29 | t0 h, kit stored 3 months at 25° C., IRE 24.56 mCi, 1 mL, pH 5.16 | t0 h, kit stored 3 months at 40° C., IRE 24.86 mCi, 1 mL, pH 5.23 | t0 h, kit stored 6 months at 2-8° C., IRE 19.90 mCi, 1 mL, pH 5.13 | t0 h, kit stored 6 months at 25° C., IRE 18.88 mCi, 1 mL, pH 5.09 | t0 h, kit stored 6 months at 40° C., IRE 19.34 mCi, 1 mL, pH 5.15 | t4 h, Gentisic Acid 0 μg, IRE 17.19 mCi, 1 mL, pH 5.24 | t4 h, Gentisic Acid 200 μg, IRE 17.85 mCi, 1 mL, pH 5.22 | t4 h, Gentisic Acid 200 μg, IRE 18.07 mCi, 1 mL, pH 5.25 | t4 h, Gentisic Acid 200 μg, ITG 35.92 mCi, 4 mL, pH 4.83 | t4 h, Gentisic Acid 400 μg, IRE 17.44 mCi, 1 mL, pH 5.13 | t4 h, Gentisic Acid 400 μg, IRE 17.79 mCi, 1 mL, pH 5.11 | t4 h, Gentisic Acid 400 μg, ITG 16.9 mCi, 4 mL, pH 4.85 | t4 h, Gentisic Acid 400 μg, ITG 31.97 mCi, 4 mL, pH 4.81 | t4 h, Gentisic Acid 1000 μg, E&Z 15.65 mCi, 5 mL, pH 3.75 | t4 h, Gentisic Acid 1000 μg, IRE 17.1 mCi, 1 mL, pH 5.08 | t4 h, Gentisic Acid 1000 μg, ITG 30.9 mCi, 4 mL, pH 4.87 | t4 h, final formulation kit at Release, E&Z 15.65 mCi, 5 mL, pH 3.75 | t4 h, final formulation kit at Release, E&Z 16.80 mCi, 5 mL, pH 3.75 | t4 h, final formulation kit at Release, IRE 32.27 mCi, 1 mL, pH 4.95 | t4 h, final formulation kit at Release, IRE 32.95 mCi, 1 mL, pH 5.07 | t4 h, final formulation kit at Release, ITG 29.74 mCi, 4 mL, pH 4.67 | t4 h, final formulation kit at Release, ITG 30.90 mCi, 4 mL, pH 4.67 | t4 h, kit stored 3 months at 2-8° C., IRE 25.76 mCi, 1 mL, pH 5.29 | t4 h, kit stored 3 months at 25° C., IRE 24.56 mCi, 1 mL, pH 5.16 | t4 h, kit stored 3 months at 40° C., IRE 24.86 mCi, 1 mL, pH 5.23 | t4 h, kit stored 6 months at 2-8° C., IRE 19.90 mCi, 1 mL, pH 5.13 | t4 h, kit stored 6 months at 25° C., IRE 18.88 mCi, 1 mL, pH 5.09 | t4 h, kit stored 6 months at 40° C., IRE 19.34 mCi, 1 mL, pH 5.15
0.23%: t0 h, Gentisic Acid 200 μg, IRE 17.85 mCi, 1 mL, pH 5.22
0.51%: t0 h, final formulation kit at Release, E&Z 16.80 mCi, 5 mL, pH 3.75
